Results: PubChem BioAssay (NCI)
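All cell lines were grown in 96-well plates and treated with compound for 48 hours. TGI denotes the concentration required for complete inhibition of growth.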

Tests used:
Assay in all cases: NCI-60 cell line screen, 48 h
LOX IMVI melanoma = test system: LOX IMVI melanoma
KM12 colon = test system: KM12 colon
NCI-H23 lung = test system: NCI-H23 lung
M14 melanoma = test system: M14 melanoma
HCT-116 colon = test system: HCT-116 colon
NCI-H460 lung = test system: NCI-H460 lung
NCI/ADR-RES ovarian = test system: NCI/ADR-RES ovarian
MDA-MB-231 breast = test system: MDA-MB-231 breast
DU-145 prostate = test system: DU-145 prostate
SK-OV-3 ovarian = test system: SK-OV-3 ovarian
HCC-2998 colon = test system: HCC-2998 colon
MOLT-4 leukemia = test system: MOLT-4 leukemia
SF-295 CNS = test system: SF-295 CNS
SF-268 CNS = test system: SF-268 CNS
PC-3 prostate = test system: PC-3 prostate
NCI-H522 lung = test system: NCI-H522 lung
786-0 renal = test system: 786-0 renal
SNB-19 CNS = test system: SNB-19 CNS
U251 CNS = test system: U251 CNS
HCT-15 colon = test system: HCT-15 colon
OVCAR-4 ovarian = test system: OVCAR-4 ovarian
T-47D breast = test system: T-47D breast
IGROV1 ovarian = test system: IGROV1 ovarian
ACHN renal = test system: ACHN renal
MDA-MB-435 = test system: MDA-MB-435
TK-10 renal = test system: TK-10 renal
COLO 205 colon = test system: COLO 205 colon
HOP-62 NSCLC = test system: HOP-62 NSCLC
UO-31 renal = test system: UO-31 renal
OVCAR-3 ovarian = test system: OVCAR-3 ovarian
HOP-92 NSCLC = test system: HOP-92 NSCLC
HL-60(TB) leukemia = test system: HL-60(TB) leukemia
SK-MEL-5 melanoma = test system: SK-MEL-5 melanoma
BT-549 breast = test system: BT-549 breast
MDA-N = test system: MDA-N
NCI-H226 lung = test system: NCI-H226 lung
SR leukemia = test system: SR leukemia
CCRF-CEM leukemia = test system: CCRF-CEM leukemia
EKVX NSCLC = test system: EKVX NSCLC
SK-MEL-2 melanoma = test system: SK-MEL-2 melanoma
UACC-62 melanoma = test system: UACC-62 melanoma
SW-620 colon = test system: SW-620 colon
OVCAR-5 ovarian = test system: OVCAR-5 ovarian
RXF 393 renal = test system: RXF 393 renal
A498 renal = test system: A498 renal
SN12C renal = test system: SN12C renal
UACC-257 melanoma = test system: UACC-257 melanoma
OVCAR-8 ovarian = test system: OVCAR-8 ovarian
SF-539 CNS = test system: SF-539 CNS
CAKI-1 renal = test system: CAKI-1 renal
MCF7 breast = test system: MCF7 breast
HS 578T breast = test system: HS 578T breast
SNB-75 CNS = test system: SNB-75 CNS
RPMI-8226 leukemia = test system: RPMI-8226 leukemia
SK-MEL-28 melanoma = test system: SK-MEL-28 melanoma
MALME-3M melanoma = test system: MALME-3M melanoma
HT29 colon = test system: HT29 colon
A549 NSCLC = test system: A549 NSCLC
K-562 leukemia = test system: K-562 leukemia

Measured: TGI

CC(=O)O[C@@H]1[C@H]2[C@@H](OC(=O)c3ccccc3)[C@@H](C)C[C@]2(O)[C@H](OC(C)=O)[C@@]2(C)[C@@H]3CC(C)(C)C(=O)[C@]3(OC(C)=O)C[C@@]12C
not listed: RPMI-8226 leukemia | SK-MEL-28 melanoma | MALME-3M melanoma | HT29 colon | A549 NSCLC | K-562 leukemia
> 25 µM: all other assays above

COc1cc(C[C@H]2C(=O)OC[C@@H]2Cc2ccc(OC)c(OC)c2)cc(OC)c1
54.5 µM: SK-MEL-5 melanoma
77.1 µM: HL-60(TB) leukemia
49.5 µM: LOX IMVI melanoma
not listed: A498 renal
> 100 µM: all other assays above
